Measurements reported in paper PMC13076199, “Convergent evolution of hexenal isomerases in Lepidoptera and plants” (Nature Ecology & Evolution, 2026).

Target: T1, MsHi-1 (Manduca sexta, UniProt Z9A1Z6DDJ7)
T1 construct: coding region in pGEX-4T-1, N-terminal GST fusion, E. coli BL21 (DE3), GST Sepharose
Assay: Hi activity with and without added FAD, SPME-GC-qToF-MS
Assay type: biochemical
Conditions: 1 mM FAD, 0.2 mM Z3AL, 20 mM Tris-HCl pH 7.0, 20 µg BSA

## Cc1cc2nc3c(=O)[nH]c(=O)nc-3n(C[C@H](O)[C@H](O)[C@H](O)COP(=O)(O)OP(=O)(O)OC[C@H]3O[C@@H](n4cnc5c(N)ncnc54)[C@H](O)[C@@H]3O)c2cc1C [flavin adenine dinucleotide]
  Hi activity with and without added FAD, SPME-GC-qToF-MS: addition of FAD to enzymatic reactions moderately increased Hi activity across all tested homologues
